Activity calls are given as the source filed them. The rule behind the calls is not given here.
What was measured:
Rattus norvegicus [1] = assay: Toxicity in Wistar Han rat assessed as induction of slight lethargy at 5 mg/kg, iv after 1 hr; format: organism-based; settings: in vivo
[2] = Ratio of drug level in brain to plasma in Wistar Han rat at 5 mg/kg, iv after 1 hr; format: ADME, organism-based; settings: read-out: BPR
[3] = Plasma concentration in Wistar Han rat at 5 mg/kg, iv measured 1 hr post compound administration; format: ADME, organism-based
Rattus norvegicus [4] = assay: Toxicity in Wistar Han rat assessed as induction of slight lethargy at 5 mg/kg, iv after 0.25 hrs; format: organism-based; settings: in vivo
[5] = Plasma concentration in Wistar Han rat at 5 mg/kg, iv measured 0.25 hrs post compound administration; format: ADME, organism-based
[6] = Drug level in Wistar Han rat brain at 5 mg/kg, iv measured 1 hr post compound administration; format: ADME, organism-based; settings: read-out: Drug uptake
Rattus norvegicus [7] = species on record: Rattus norvegicus; assay: Displacement of [3H]-DTG from sigma 2 receptor in rat liver membranes at 1 uM after 120 mins by scintillation counting; format: cell membranes; settings: Membrane
Cavia porcellus = species on record: Cavia porcellus; assay: Displacement of [3H]DPDPE from delta-type opioid receptor in guinea pig brain membranes at 1 uM after 120 mins by solid scintillation counting; format: cell membranes; settings: Membrane
[8] = Stability of the compound in buffer; format: physicochemical
[9] = target: T1, Kappa-type opioid receptor (Homo sapiens, UniProt P41145); assay: Agonist activity at recombinant human kappa-type opioid receptor expressed in HEK293 cells at 1 uM after 30 mins by [35S]GTPgammaS binding assay; format: functional, cell-based
[10] = target: Sigma non-opioid intracellular receptor 1 (Cavia porcellus) (UniProt Q60492); assay: Displacement of [3H]-(+)-pentazocine from sigma1-type […] receptor in guinea pig cortex membranes at 1 uM after 120 mins by solid scintillation counting; format: cell membranes
[11] = target: T1, Kappa-type opioid receptor; assay: Agonist activity at recombinant human kappa-type opioid receptor expressed in HEK293 cells after 30 mins by [35S]GTPgammaS binding assay; format: functional, cell-based
Sus scrofa = species on record: Sus scrofa; assay: Displacement of [3H]-(+)-MK 801 from PCP binding site of NMDA receptor in pig brain cortex membranes at 10 uM after 120 mins by solid scintillation counting; format: cell membranes
[12] = target: Mu-type opioid receptor (Cavia porcellus) (UniProt P97266); assay: Displacement of [3H]DAMGO from mu-type opioid receptor in guinea pig brain membranes at 1 uM after 120 mins by solid scintillation counting; format: cell membranes; settings: Membrane
[13] = target: Kappa-type opioid receptor (Cavia porcellus, UniProt P41144); assay: Displacement of [3H]U-69,593 from kappa-type opioid receptor in guinea pig brain membranes after 120 mins by solid scintillation counting; format: cell membranes, Membrane
Rattus norvegicus [14] = assay: Toxicity in Wistar Han rat assessed as clinical signs changes at 1 mg/kg, iv after 1 hr; format: organism-based; settings: in vivo
[15] = Drug level in Wistar Han rat brain at 1 mg/kg, iv measured 1 hr post compound administration; format: ADME, organism-based; settings: Wistar Han, brain, read-out: Drug uptake
[16] = Plasma concentration in Wistar Han rat at 1 mg/kg, iv measured 1 hr post compound administration; format: ADME, organism-based
[17] = Ratio of drug level in brain to plasma in Wistar Han rat at 1 mg/kg, iv after 1 hr; format: ADME, organism-based; settings: read-out: BPR
[18] = Plasma concentration in Wistar Han rat at 1 mg/kg, iv measured 0.25 hrs post compound administration; format: ADME, organism-based
Mus musculus [19] = assay: Antiinflammatory activity in arachidonic acid-induced ear dermatitis ICR mouse model assessed as reduction in ear swelling at 0.1 mg administered twice tropically 30 mins prior and 15 mins after arachidonic acid addition measured 60 mins post arachidonic acid challenge relative to control; format: functional
Mus musculus [20] = assay: CNS toxicity in sc dosed mouse model of acetic acid-induced writhing assessed as lowest dose causing side effects; format: organism-based; settings: in vivo
Mus musculus [21] = assay: Antiinflammatory activity in arachidonic acid-induced ear dermatitis ICR mouse model assessed as reduction in ear swelling at 3 mg administered twice tropically 30 mins prior and 15 mins after arachidonic acid addition measured 60 mins post arachidonic acid challenge relative to control; format: functional
Mus musculus [22] = assay: Antiinflammatory activity in arachidonic acid-induced ear dermatitis ICR mouse model assessed as reduction in ear swelling at 1 mg administered twice tropically 30 mins prior and 15 mins after arachidonic acid addition measured 60 mins post arachidonic acid challenge relative to control; format: functional
Mus musculus [23] = assay: Antinociceptive activity in sc dosed mouse model of acetic acid-induced writhing; format: functional
Mus musculus [24] = assay: Antiinflammatory activity in arachidonic acid-induced ear dermatitis ICR mouse model assessed as reduction in ear swelling at 0.3 mg administered twice tropically 30 mins prior and 15 mins after arachidonic acid addition measured 60 mins post arachidonic acid challenge relative to control; format: functional
[25] = Displacement of [3H]DPDPE from delta-type opioid receptor in guinea pig brain membranes after 120 mins by solid scintillation counting; format: cell membranes, Cavia porcellus, Membrane
Mu-type opioid receptor = Mu-type opioid receptor (Cavia porcellus, UniProt P97266); assay: Displacement of [3H]DAMGO from mu-type opioid receptor in guinea pig brain membranes after 120 mins by solid scintillation counting; format: cell membranes, Membrane
Mus musculus [26] = assay: (§1) Antiinflammatory activity in oxazolone-induced delayed type hypersensitivity BALB/c mouse model assessed as effect on histology changes at 0.1 to 2.5 mg applied topically on ear administered 3 hrs prior to oxazolone challenge on day 7 to 12 post sensitization followed by re-administration of compound on day 13 to 18 without oxazolone challenge measured daily prior to treatment from day 7 to 19 by H and E staining based assay; format: functional
Mus musculus [27] = assay: (§2) Antiinflammatory activity in tropically administered oxazolone-induced delayed type hypersensitivity BALB/c mouse model assessed as effect on ear weight administered 3 hrs prior to oxazolone challenge on day 7 to 12 post sensitization followed by re-administration of compound on day 13 to 18 without oxazolone challenge measured on day 19; format: functional
Mus musculus [28] = assay: as §2, with “in” for “in tropically administered”, “reduction in ear weight at 0.1 to 2.5 mg applied topically” for “effect”, “ear” for “ear weight”; format: functional
Mus musculus [29] = assay: as §2, with “in” for “in tropically administered”, “reduction in ear thickness at 0.5 mg applied topically” for “effect”, “ear” for “ear weight”; format: functional
Mus musculus [30] = assay: as §1, with “reduction in ear swelling” for “effect on histology changes”, “at” for “at 0.1 to”, “19” for “19 by H and E staining based assay”; format: functional
Mus musculus [31] = assay: as §2, with “in” for “in tropically administered”, “reduction in ear weight at 2.5 mg applied topically” for “effect”, “ear” for “ear weight”; format: functional

T1 sequence (P41145 whole entry): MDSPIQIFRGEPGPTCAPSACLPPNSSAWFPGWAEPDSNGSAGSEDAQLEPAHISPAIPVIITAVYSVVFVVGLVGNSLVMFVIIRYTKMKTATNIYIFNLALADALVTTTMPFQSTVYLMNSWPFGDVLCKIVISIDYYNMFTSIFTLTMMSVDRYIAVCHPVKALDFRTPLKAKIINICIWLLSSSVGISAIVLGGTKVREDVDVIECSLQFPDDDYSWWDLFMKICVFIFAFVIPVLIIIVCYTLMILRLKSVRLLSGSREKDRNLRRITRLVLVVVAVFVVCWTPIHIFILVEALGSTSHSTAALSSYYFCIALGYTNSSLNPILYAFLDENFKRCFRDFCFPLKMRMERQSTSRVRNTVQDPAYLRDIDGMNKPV
Sequence of Kappa-type opioid receptor (Cavia porcellus, UniProt P41144) (P41144 whole entry): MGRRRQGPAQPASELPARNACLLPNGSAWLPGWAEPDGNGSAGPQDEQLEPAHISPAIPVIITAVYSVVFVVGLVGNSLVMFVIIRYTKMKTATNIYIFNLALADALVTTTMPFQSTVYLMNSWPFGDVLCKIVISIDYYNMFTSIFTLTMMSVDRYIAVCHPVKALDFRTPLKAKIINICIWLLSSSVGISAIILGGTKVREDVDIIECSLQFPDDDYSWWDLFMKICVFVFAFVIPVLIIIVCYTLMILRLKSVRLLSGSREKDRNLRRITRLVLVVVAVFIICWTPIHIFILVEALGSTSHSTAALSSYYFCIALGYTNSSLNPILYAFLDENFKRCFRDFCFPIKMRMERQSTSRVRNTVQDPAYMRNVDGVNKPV
Sequence of Sigma non-opioid intracellular receptor 1 (Cavia porcellus) (Q60492 whole entry): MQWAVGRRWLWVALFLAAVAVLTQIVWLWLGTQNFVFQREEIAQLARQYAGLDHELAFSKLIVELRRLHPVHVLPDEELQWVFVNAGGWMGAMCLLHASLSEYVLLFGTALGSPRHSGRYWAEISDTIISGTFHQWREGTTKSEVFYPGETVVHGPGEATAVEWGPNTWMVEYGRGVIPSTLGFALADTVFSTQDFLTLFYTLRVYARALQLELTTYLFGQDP
Sequence of Mu-type opioid receptor (Cavia porcellus) (P97266 whole entry): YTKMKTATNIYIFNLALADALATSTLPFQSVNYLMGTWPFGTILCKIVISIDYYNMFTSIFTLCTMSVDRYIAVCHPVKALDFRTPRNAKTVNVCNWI
Sequence of Mu-type opioid receptor (P97266 whole entry): as above

| SMILES | inhibition (Rattus norvegicus [7]) [%] | Activity [9] [%] | inhibition [10] [%] | EC50 [11] [nM] | inhibition (Sus scrofa) [%] | Ki [13] [nM] | Activity (Rattus norvegicus [14]) | concentration at 1 h [15] [ng/g] | concentration at 1 h [16] [ng/mL] | Kp at 1 h [17] | concentration at 0.25 h [18] [ng/mL] | further results |
| --- | --- | --- | --- | --- | --- | --- | --- | --- | --- | --- | --- | --- |
| COC(=O)N1CCN(C(=O)Cc2ccc(C(F)(F)F)c(Cl)c2)[C@@H]2[C@@H](N3CC[C@H](O)C3)CCC[C@@H]21.Cl |  |  |  |  |  |  |  |  |  |  |  | Activity (Rattus norvegicus [1]): Toxic; Kp at 1 h [2]: 0.17; concentration at 1 h [3]: 573 ng/mL; Activity (Rattus norvegicus [4]): Toxic; concentration at 0.25 h [5]: 1860 ng/mL; concentration at 1 h [6]: 95.8 ng/g |
| CC(C)OC(=O)CN1CCN(C(=O)Cc2ccc(Cl)c(Cl)c2)[C@@H]2[C@@H](N3CCCC3)CCC[C@@H]21 | 26 | 94 | 0 | 5 | 1 | 1.4 |  |  |  |  |  | inhibition (Cavia porcellus): 0%; Stability [8]: Unstable; inhibition [12]: 7% |
| CS(=O)(=O)N1CCN(C(=O)Cc2ccc(Cl)c(Cl)c2)[C@@H]2[C@@H](N3CCCC3)CCC[C@@H]21.Cl |  |  |  |  |  |  | Non-Toxic | 2.9 | 124 | 0.02 | 246 |  |
| COC(=O)N1CCN(C(=O)Cc2ccc(Cl)c(Cl)c2)[C@@H]2[C@@H](N3CC[C@@H](O)C3)CCC[C@@H]21.Cl |  |  |  |  |  |  | Non-Toxic | 7.9 | 115 | 0.07 | 454 |  |
| COC(=O)N1CCN(C(=O)Cc2ccc(Cl)c(Cl)c2)[C@@H]2[C@@H](N3CC[C@@H](O)C3)CCC[C@@H]21 |  |  |  | 4.7 |  | 1.3 |  |  |  |  |  | inhibition (INH) (Mus musculus [19]): 25%; MTC (Mus musculus [20]): 16.2 mg/kg; inhibition (INH) (Mus musculus [21]): 60%; inhibition (INH) (Mus musculus [22]): 66%; ED50 (Mus musculus [23]): 9.6 mg/kg; inhibition (INH) (Mus musculus [24]): 40%; Ki [25]: 198 nM |
| CCOC(=O)CN1CCN(C(=O)Cc2ccc(Cl)c(Cl)c2)[C@@H]2[C@@H](N3CCCC3)CCC[C@@H]21 | 12 | 106 | 0 | 3.2 | 0 | 0.43 |  |  |  |  |  | Ki (Mu-type opioid receptor): 830 nM; Stability [8]: Unstable; Ki [25]: 907 nM |
| COC(=O)CN1CCN(C(=O)Cc2ccc(Cl)c(Cl)c2)[C@@H]2[C@@H](N3CCCC3)CCC[C@@H]21.Cl |  |  |  |  |  |  | Non-Toxic | 4.6 | 199 | 0.02 | 477 |  |
| COC(=O)N1CCN(C(=O)Cc2ccc(Cl)cc2)[C@@H]2[C@@H](N3CC[C@H](O)C3)CCC[C@@H]21 | 11 | 103 | 21 |  | 7 |  |  |  |  |  |  | Activity (Mus musculus [26]): Active; Activity (Mus musculus [27]): Dose-dependent effect; Activity (Mus musculus [28]): Dose-dependent effect |
| CN(C)S(=O)(=O)N1CCN(C(=O)Cc2ccc(Cl)c(Cl)c2)[C@@H]2[C@@H](N3CCCC3)CCC[C@@H]21.Cl |  |  |  |  |  |  |  |  |  |  |  | Activity (Rattus norvegicus [1]): Toxic; Kp at 1 h [2]: 0.97; concentration at 1 h [3]: 560 ng/mL; Activity (Rattus norvegicus [4]): Toxic; concentration at 0.25 h [5]: 1080 ng/mL; concentration at 1 h [6]: 541 ng/g |
| CS(=O)(=O)N1CCN(C(=O)Cc2ccc(F)c(Cl)c2)[C@@H]2[C@@H](N3CC[C@H](O)C3)CCC[C@@H]21 | 3 | 99 | 3 |  | 6 |  |  |  |  |  |  | Activity (Mus musculus [29]): Active; Activity (Mus musculus [30]): Active; inhibition [12]: 0%; Activity (Mus musculus [31]): Active |
